Assay results taken from ChEMBL document CHEMBL5042483, “Discovery and Mechanism of SARS-CoV-2 Main Protease Inhibitors” (J Med Chem, 2022).
Activity calls are given as the source filed them. No cut-off for these calls is given here.

Experiments:
[1] = Inhibition of GST-tagged SARS-CoV-2 main protease expressed in Escherichia coli BL21 competent cells using DABCYL-Val-Asn-Ser-Thr-Leu-Gln-Ser-Gly-Leu-Arg-Lys-EDANS as substrate measured every 10 mins for 1 hr by FRET assay; parameters: species or system Severe acute respiratory syndrome coronavirus 2
[2] = system: SARS-CoV-2; type: functional, organism-based, Vero E6; details: Severe acute respiratory syndrome coronavirus 2, USA_WA1/2020, Vero C1008
[3] = system: SARS-CoV-2; test: Antiviral activity against SARS-CoV-2 USA_WA1/2020 infected in human Calu-3 cells assessed as reduction in viral RNA replication pretreated for 1 hr with compound followed by viral infection for 1.5 hrs then followed by washout the cells and re-incubated with compounds for 24 hrs by qRT-PCR method; type: functional, organism-based; details: Severe acute respiratory syndrome coronavirus 2, USA_WA1/2020, Calu-3
[4] = system: Severe acute respiratory syndrome coronavirus 2; test: (§1) Reversible covalent inhibition of SARS-CoV-2 main protease expressed in Escherichia coli BL21 competent cells using DABCYL-Val-Asn-Ser-Thr-Leu-Gln-Ser-Gly-Leu-Arg-Lys-EDANS as fluorogenic substrate assessed as reduction in product formation at 1 to 10 uM preincubated for 30 mins in presence of DTT by dilution assay; details: dose 1-10 µM
[5] = Distribution coefficient, logD of compound at pH 7.4 by shake flask method; type: physicochemical; details: octanol/water
[6] = system: Severe acute respiratory syndrome coronavirus 2; test: Competitive inhibition of SARS-CoV-2 main protease assessed as inhibitor concentration dependent Km with constant Vmax at 0.5 to 10 uM using varying concentrations of DABCYL-KTSAVLQ1SGFRKM-E(EDANS)-NH2 as substrate by double reciprocal plot analysis; details: dose 0.5-10 µM
[7] = system: Severe acute respiratory syndrome coronavirus 2; test: as §1, with “1” for “1 to 10”, “absence” for “presence”, “assay relative to control” for “assay”
[8] = system: Severe acute respiratory syndrome coronavirus 2; test: as §1, with “at” for “at 1 to”, “assay relative to control” for “assay”
[9] = system: Severe acute respiratory syndrome coronavirus 2; test: as §1, with “at” for “at 1 to”, “incubated” for “preincubated”, “mins” for “mins in presence of DTT”, “assay relative to control” for “assay”
[10] = system: Severe acute respiratory syndrome coronavirus 2; test: as §1, with “at” for “at 1 to”, “absence” for “presence”, “assay relative to control” for “assay”
[11] = system: SARS-CoV-2; test: microbe, parasite or virus in culture; details: Severe acute respiratory syndrome coronavirus 2, Vero C1008, 24 h
[12] = Inhibition of SARS-CoV-2 main protease expressed in Escherichia coli using MCA-AVLQSGFR-Lys(Dnp)-Lys-NH2 as substrate by FRET assay; parameters: species or system Severe acute respiratory syndrome coronavirus 2
[13] = system: Severe acute respiratory syndrome coronavirus 2; test: as §1, with “1” for “1 to 10”, “incubated” for “preincubated”, “mins” for “mins in presence of DTT”, “assay relative to control” for “assay”
[14] = system: Severe acute respiratory syndrome coronavirus 2; test: as §1, with “1” for “1 to 10”, “assay relative to control” for “assay”
[15] = Toxicity in human iPSC derived lung organoids infected with SARS-CoV-2 USA_WA1/2020 measured after 24 hrs

CSc1ccccc1-n1[se]c2ccccc2c1=O
IC50 [1]: > 10 µM | EC50 [2]: > 20 µM

CCC(CC)COC(=O)[C@H](C)NP(=O)(OC[C@H]1O[C@@](C#N)(c2ccc3c(N)ncnn23)[C@H](O)[C@@H]1O)Oc1ccccc1 (single isomer, unassigned)
EC50 [2]: 1.8 µM | EC50 [3]: 0.8 µM

COc1ccc(Cn2[se]c3ccccc3c2=O)cc1
IC50 [1]: > 10 µM | EC50 [2]: > 20 µM

Cc1ccc(-n2[se]c3ccccc3c2=O)cc1
IC50 [1]: 2.29 µM | EC50 [2]: 15.4 µM

COc1ccc(Cn2[se]c3ccccc3c2=O)c(OC)c1
inhibition [4]: Active | logD [5]: 0.85 | IC50 [1]: 0.61 µM | EC50 [2]: 26.5 µM

COc1cc(F)ccc1-n1[se]c2ccccc2c1=O
IC50 [1]: 1.8 µM | EC50 [2]: > 20 µM

COc1ccc(F)cc1-n1[se]c2ccccc2c1=O
IC50 [1]: 3.3 µM | EC50 [2]: > 20 µM

O=c1c2ccccc2[se]n1-c1ccc(C(F)(F)F)cc1
logD [5]: 3.19 | inhibition [6]: Active | IC50 [1]: 0.9 µM | inhibition [7]: 44% | inhibition [8]: 43% | EC50 [2]: 11.2 µM | EC50 [3]: 2.8 µM | inhibition [9]: 86% | inhibition [10]: 48%

O=c1c2ccccc2[se]n1-c1c(F)cccc1F
IC50 [1]: 2.09 µM | EC50 [2]: > 20 µM

COc1ccc(-n2[se]c3ccccc3c2=O)cc1
IC50 [1]: 1.25 µM | EC50 [2]: 1.7 µM

O=c1c2ccccc2[se]n1-c1ccc(F)cc1C(F)(F)F
IC50 [1]: > 10 µM | EC50 [2]: > 20 µM

O=C[C@H](C[C@@H]1CCNC1=O)NC(=O)[C@H](Cc1cccc(F)c1)NC(=O)c1cc2ccccc2[nH]1
EC50 [11]: 0.72 µM | IC50 [12]: 0.04 µM

O=c1c2ccccc2[se]n1-c1cc(Cl)cc(Cl)c1
inhibition [4]: Active | logD [5]: 1.67 | IC50 [1]: 0.64 µM | EC50 [2]: 18.2 µM

O=c1c2ccccc2[se]n1-c1ccccc1 [EBSELEN]
logD [5]: 0.92 | inhibition [13]: 65% | inhibition [6]: Active | EC50 [2]: > 20 µM | EC50 [3]: 5 µM | inhibition [9]: 89% | inhibition [10]: 91%

CCCCCCCCn1[se]c2ccccc2c1=O
IC50 [1]: 2.69 µM | EC50 [2]: > 20 µM

Cc1ccccc1-n1[se]c2ccccc2c1=O
IC50 [1]: 7.43 µM | EC50 [2]: 20.7 µM

Cc1ccc(-n2[se]c3ccccc3c2=O)cc1C
IC50 [1]: > 10 µM | EC50 [2]: 12.2 µM

CCCCCn1[se]c2ccccc2c1=O
IC50 [1]: > 10 µM | EC50 [2]: > 20 µM

O=c1c2ccccc2[se]n1Cc1ccc(F)cc1
IC50 [1]: 1 µM | EC50 [2]: > 20 µM | inhibition [14]: 53%

O=c1c2ccccc2[se]n1-c1ccc(Br)cc1
logD [5]: 1.46 | IC50 [1]: 2.77 µM | EC50 [2]: 5.2 µM | EC50 [3]: 15.7 µM

COc1cccc(-n2[se]c3ccccc3c2=O)c1
IC50 [1]: > 10 µM | EC50 [2]: 15.1 µM

O=c1c2ccccc2[se]n1-c1ccc(F)cc1
IC50 [1]: 2.78 µM | EC50 [2]: 16.7 µM

CCCCCCCn1[se]c2ccccc2c1=O
IC50 [1]: 5.56 µM | EC50 [2]: 17.3 µM

O=c1c2ccccc2[se]n1-c1cccc(Cl)c1
inhibition [4]: Active | logD [5]: 1.53 | IC50 [1]: 0.68 µM | EC50 [2]: 17.4 µM

COc1ccc2c(=O)n(-c3ccccc3)[se]c2c1
IC50 [1]: 6.4 µM | EC50 [2]: 11.2 µM

O=c1c2ccccc2[se]n1-c1cccc(C(F)(F)F)c1
logD [5]: 3.18 | IC50 [1]: 2.77 µM | Activity [15]: Non-Toxic | EC50 [2]: 0.8 µM | EC50 [3]: 1.3 µM

O=c1c2ccccc2[se]n1-c1ccccc1F
IC50 [1]: > 10 µM | EC50 [2]: > 20 µM

O=c1c2ccccc2[se]n1-c1ccc(Cl)cc1OC(F)(F)F
IC50 [1]: > 10 µM | EC50 [2]: > 20 µM

COc1ccc(Cl)cc1-n1[se]c2ccccc2c1=O
IC50 [1]: > 10 µM | EC50 [2]: > 20 µM

O=c1c2ccccc2[se]n1Cc1ccc(C(F)(F)F)cc1
IC50 [1]: > 10 µM | EC50 [2]: 11.2 µM

CCc1ccc(-n2[se]c3ccccc3c2=O)cc1
logD [5]: 2.87 | IC50 [1]: 6.18 µM | EC50 [2]: 6.5 µM | EC50 [3]: 8.8 µM

N#Cc1cccc(-n2[se]c3ccccc3c2=O)c1
logD [5]: 1.45 | inhibition [13]: 29% | IC50 [1]: 0.38 µM | EC50 [2]: 2 µM | inhibition [9]: 94% | inhibition [10]: 64%
